What was measured:
integrin α4β7 = target: T1, integrin α4β7 (Homo sapiens, UniProt P13612+P26010); assay: Fluorescence polarization (FP) assay for α4β7 binding (Example 5); details: competition with fluorescein-labeled peptide, 6.5 nM integrin α4β7, 2 mM manganese chloride; Table 4 comparative compounds
T1 sequence (P13612 35-977 limits assumed): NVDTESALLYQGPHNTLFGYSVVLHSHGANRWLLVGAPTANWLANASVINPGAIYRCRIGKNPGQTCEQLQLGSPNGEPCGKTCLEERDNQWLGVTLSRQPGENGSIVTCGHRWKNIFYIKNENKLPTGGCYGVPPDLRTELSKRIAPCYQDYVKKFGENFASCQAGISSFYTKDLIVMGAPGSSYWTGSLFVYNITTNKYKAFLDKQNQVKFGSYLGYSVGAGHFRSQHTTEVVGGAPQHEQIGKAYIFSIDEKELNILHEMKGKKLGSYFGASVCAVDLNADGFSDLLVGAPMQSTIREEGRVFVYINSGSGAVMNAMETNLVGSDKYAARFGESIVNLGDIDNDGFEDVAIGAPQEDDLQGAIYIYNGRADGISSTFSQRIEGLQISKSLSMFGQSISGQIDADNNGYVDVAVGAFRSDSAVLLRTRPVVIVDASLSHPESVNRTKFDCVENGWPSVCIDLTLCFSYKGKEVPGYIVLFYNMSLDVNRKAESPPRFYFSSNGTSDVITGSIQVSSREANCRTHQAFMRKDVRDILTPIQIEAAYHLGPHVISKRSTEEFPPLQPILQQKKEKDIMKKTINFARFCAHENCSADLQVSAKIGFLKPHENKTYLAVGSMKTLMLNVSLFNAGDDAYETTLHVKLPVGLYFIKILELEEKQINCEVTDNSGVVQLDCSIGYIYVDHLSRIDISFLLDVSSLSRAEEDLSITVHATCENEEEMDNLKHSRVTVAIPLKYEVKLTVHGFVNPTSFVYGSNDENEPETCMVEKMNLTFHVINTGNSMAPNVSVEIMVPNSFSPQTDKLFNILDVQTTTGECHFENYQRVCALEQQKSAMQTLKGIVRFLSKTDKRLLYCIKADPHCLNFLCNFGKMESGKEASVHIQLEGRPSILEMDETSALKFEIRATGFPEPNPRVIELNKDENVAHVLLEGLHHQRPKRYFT
T1 sequence (P26010 20-723 limits assumed): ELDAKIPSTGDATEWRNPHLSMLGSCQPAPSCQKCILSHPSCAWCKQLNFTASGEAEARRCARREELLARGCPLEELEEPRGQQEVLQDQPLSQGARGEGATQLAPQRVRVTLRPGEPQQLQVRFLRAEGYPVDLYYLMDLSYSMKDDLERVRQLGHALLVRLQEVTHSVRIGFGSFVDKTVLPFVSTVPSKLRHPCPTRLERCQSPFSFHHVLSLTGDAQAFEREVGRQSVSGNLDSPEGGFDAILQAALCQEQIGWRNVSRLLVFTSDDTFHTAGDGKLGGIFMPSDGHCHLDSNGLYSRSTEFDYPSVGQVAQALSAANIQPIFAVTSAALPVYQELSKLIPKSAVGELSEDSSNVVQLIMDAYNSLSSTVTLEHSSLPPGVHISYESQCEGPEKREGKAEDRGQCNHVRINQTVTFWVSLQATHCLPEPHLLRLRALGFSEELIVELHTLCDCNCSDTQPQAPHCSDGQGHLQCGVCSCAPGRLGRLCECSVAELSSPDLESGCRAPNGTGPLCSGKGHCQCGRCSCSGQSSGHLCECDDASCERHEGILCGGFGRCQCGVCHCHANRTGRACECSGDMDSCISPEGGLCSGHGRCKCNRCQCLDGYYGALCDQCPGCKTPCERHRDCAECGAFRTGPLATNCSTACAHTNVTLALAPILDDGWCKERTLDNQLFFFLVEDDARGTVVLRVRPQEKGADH
Procedure: Compounds of Formula (I) were evaluated using a fluorescent polarization (FP) assay. FP assays are used to evaluate potency of compounds on purified protein. The FP assays consists of measuring purified integrin αβ heterodimer ecto domains or headpiece binding to surrogate or truncated ligands.
(§1) Three in vitro assays were used to examine the α4β7 mechanistic process used by cells: 1) ligand:receptor affinity, 2) the avidity of those interactions on a cell's surface, and 3) how those interactions fare under an imposing force. In Example 5, a Fluorescence Polarization (FP) assay is used to measure compound activity through binding competition with the fluorescein-labeled peptide. In Example 6, the potency of compounds against α4β7 is measured in the cell-based ligand binding assay (LBA), using RPMI 8866 cells incubated with the compound samples in competition with soluble MAdCAM-1 ligand. In Example 7, activity of compounds is evaluated in a cell adhesion assay that mechanistically tests what occurs in vivo when trafficking cells utilize α4β7 to adhere to MAdCAM-1 expressing HEVs of the gut during the extravasation process. In the cell adhesion assay of Example 7, a MAdCAMI1-(Fc) is coated on plastic, and α4β7 expressing cells (RPMI-8866) are allowed to adhere to the coated surface in the presence of the test compounds. Next, the force of washing with buffer is applied to cells thereby testing the strength of that adhesion. Unattached cells are removed and the remaining adherent cells are quantified.
Fluorescence Polarization (FP) assays were used to measure compound activity through binding competition with the fluorescein-labeled peptide […]{Lys(FITC)}. In the assay, 6.5 nM of integrin α4β7 was incubated with the test compound in 2 mM manganese chloride, 0.1 mM calcium chloride, 20 mM HEPES buffer at pH 7.3, 150 mM sodium chloride, 0.01% Triton X-100, 2% DMSO, and 3 nM of the fluorescein-labeled peptide. Running the assays in 384-well plates, the integrin protein was pre-incubated with the test compounds for 15 minutes at 22° C. before the fluorescein-labeled peptide was added. After the fluorescein-labeled peptide was added, the assay was incubated at 22° C. for 1 hour and fluorescence polarization was measured. IC50 values were determined by nonlinear regression, four-parameter curve fitting.

α4β7 [1] = target: T2, α4β7 (Homo sapiens, UniProt P13612+P26010); assay: Cell-based MAdCAM-1 ligand binding assay (LBA) on RPMI 8866 cells (Example 6); details: MAdCAM-1-Fc Dylight 650, 3 mM manganese chloride, flow cytometry, Table 4 comparative compounds, read-out: LB Assay (Example 6)
T2 construct: endogenous in cells; host or cells: RPMI 8866 cells
T2 sequence (P13612 34-1032): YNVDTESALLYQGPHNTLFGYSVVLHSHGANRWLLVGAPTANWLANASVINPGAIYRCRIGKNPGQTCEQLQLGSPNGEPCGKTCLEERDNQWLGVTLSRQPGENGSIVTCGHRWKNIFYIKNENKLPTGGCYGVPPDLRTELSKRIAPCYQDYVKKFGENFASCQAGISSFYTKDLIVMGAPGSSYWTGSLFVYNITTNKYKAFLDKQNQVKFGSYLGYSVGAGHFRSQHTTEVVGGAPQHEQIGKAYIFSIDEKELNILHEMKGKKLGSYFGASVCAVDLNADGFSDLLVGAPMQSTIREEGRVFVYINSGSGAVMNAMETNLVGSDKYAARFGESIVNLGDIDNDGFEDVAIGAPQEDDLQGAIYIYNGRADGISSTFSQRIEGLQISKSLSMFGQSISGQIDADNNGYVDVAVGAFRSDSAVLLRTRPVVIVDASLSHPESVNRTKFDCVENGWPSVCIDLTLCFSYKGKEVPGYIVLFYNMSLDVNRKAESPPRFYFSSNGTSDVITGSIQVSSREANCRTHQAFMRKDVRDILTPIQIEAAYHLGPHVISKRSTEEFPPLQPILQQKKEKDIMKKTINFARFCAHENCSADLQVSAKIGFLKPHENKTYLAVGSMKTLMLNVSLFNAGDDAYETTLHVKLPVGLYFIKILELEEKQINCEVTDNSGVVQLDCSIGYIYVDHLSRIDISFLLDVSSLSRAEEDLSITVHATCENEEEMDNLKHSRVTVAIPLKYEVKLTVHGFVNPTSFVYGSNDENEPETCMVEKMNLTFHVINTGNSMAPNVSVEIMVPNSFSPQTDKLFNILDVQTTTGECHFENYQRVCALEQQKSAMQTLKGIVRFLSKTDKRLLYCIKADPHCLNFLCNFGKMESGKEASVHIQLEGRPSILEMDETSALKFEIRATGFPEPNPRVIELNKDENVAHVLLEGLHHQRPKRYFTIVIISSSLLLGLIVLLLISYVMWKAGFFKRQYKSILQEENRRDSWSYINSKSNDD
T2 sequence (P26010 20-798): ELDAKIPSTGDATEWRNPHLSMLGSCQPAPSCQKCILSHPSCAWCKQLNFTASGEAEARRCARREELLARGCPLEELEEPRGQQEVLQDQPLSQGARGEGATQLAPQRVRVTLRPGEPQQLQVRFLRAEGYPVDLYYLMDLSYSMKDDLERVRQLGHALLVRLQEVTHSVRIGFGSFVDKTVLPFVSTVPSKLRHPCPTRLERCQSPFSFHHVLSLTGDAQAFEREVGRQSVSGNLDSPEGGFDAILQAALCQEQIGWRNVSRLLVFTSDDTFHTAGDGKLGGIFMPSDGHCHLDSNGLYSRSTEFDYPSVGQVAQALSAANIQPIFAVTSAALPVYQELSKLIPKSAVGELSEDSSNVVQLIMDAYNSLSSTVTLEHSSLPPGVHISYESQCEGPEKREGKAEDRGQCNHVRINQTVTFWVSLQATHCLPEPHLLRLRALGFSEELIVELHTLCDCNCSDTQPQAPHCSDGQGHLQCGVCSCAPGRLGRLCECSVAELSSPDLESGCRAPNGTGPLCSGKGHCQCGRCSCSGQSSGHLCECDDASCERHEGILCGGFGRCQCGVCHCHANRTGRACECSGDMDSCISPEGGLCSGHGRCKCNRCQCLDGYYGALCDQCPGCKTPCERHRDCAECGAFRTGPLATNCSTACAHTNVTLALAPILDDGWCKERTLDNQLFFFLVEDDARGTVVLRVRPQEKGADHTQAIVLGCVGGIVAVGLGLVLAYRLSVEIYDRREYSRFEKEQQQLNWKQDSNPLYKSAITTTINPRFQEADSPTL
From the text: Compounds of Formula (I) were further evaluated using a Ligand binding assay (LBA) to examine compound potency of free ligand binding to receptors expressed on cells. The MAdCAM ligand binding assay uses flow cytometry to measure the binding of fluorescently-labeled MAdCAM-1-Fc to RPMI 8866 cells in the presence of Mn++. This assay assesses the binding of compounds to native full-length receptors on the cell surface. […] Ligand binding assays (LBA) are used to examine compound potency and selectivity of free ligand binding to receptors expressed on cells.
as §1
5 ul of 33 nM MAdCAM-1-Fc fluorescently labeled with Dylight 650 in 50 mM HEPES pH 7.3, 150 mM sodium chloride, and 1% bovine serum albumin was added to the cells. The samples were incubated for 45 minutes at room temperature, fixed with 0.8% formaldehyde for 30 minutes at room temperature, and washed with 50 mM Tris pH 7.5, 150 mM NaCl, 1 mM EDTA, and 1% bovine serum albumin. Fluorescence intensity for each cell was measured via flow cytometry. Dead cells were excluded from further analysis based on staining with the 780 fixable viability dye. Median fluorescence intensity for Dylight 650 was determined for each sample and concentration-response curves were analyzed for IC50 values using 4-parameter non-linear regression analysis.

α4β7 [2] = target: T2, α4β7; assay: Cell adhesion assay, RPMI8866 cells on MAdCAM coated plates (Example 7); format: cell-based; details: RPMI8866 cells adhering to recombinant human MAdCAM, read-out: CA Assay (Example 7)
Procedure: as §1
Example 7 describes a cell adhesion assay.
To each well of a 96 well plate, 100 ug of recombinant human MAdCAM in 100 ul PBS is added and incubated overnight at 4° C. After incubation MAdCAM is removed by aspiration and 200 ul of PBS+1% BSA is added to block the plate for 2 hours at 37° C. and 5% CO2. During this incubation dilution curves of compound are made in 100% DMSO in 96 well V bottom plates. 1.75 ul of diluted compounds are then transferred to a new 96 well U bottom plate containing 20 ul of assay media (phosphate free DMEM+25 mM HEPES+1% BSA). To this an additional 155 ul of assay media is added with mixing by pipetting up and down. This mixture is allowed to incubate for 15 minutes at 37° C. and 5% CO2. After incubation 175 ul of assay media containing 2e6/mL RPMI8866 cells is added to compound containing wells without mixing and plate is allowed to incubate for another 15 minutes at 37° C. and 5% CO2. During this incubation MAdCAM coated plates are removed from incubator and washed twice with 200 ul PBS+0.1% BSA. […] This plate is then incubated at 37° C. and 5% CO2 for 1 hour. After incubation plates are washed twice with 200 ul and once with 50 ul of phenol free RPMI+1% BSA. A final 50 ul of phenol free RPMI+1% BSA is added to wells after last wash. Next 50 ul of Promega cell titer glow is added to the wells. Plate is incubated on shaker for 2 minutes at 200 RPM followed by another 8 minutes off shaker before having the luminescence read on a Biotek Citation 5 plate reader. Raw data is converted to % inhibition compared to bottom of curve and analyzed using a 4-parameter non linear curve in Prism to determine IC50 and IC90.

SMILES | IC50 (integrin α4β7) [nM] | also measured
Cc1cccc(C)c1-c1cncc([C@H](CC(=O)O)NC(=O)[C@@H](CC(C)C)n2ccccc2=O)c1 | 10 to 500 | –
Cc1ccccc1-c1cc([C@H](CC(=O)O)NC(=O)[C@H](CC(C)C)n2ccc(C(F)(F)F)cc2=O)cnc1C | – | IC50 (α4β7 [1]): 10 to 500 nM; IC50 (α4β7 [2]; Table 4 comparative compounds): > 100 nM
Cc1cccc(C)c1-c1cncc([C@@H](CC(=O)O)NC(=O)[C@H](CC(C)C)n2ccccc2=O)c1 | > 500 | –
Cc1cccc(C)c1-c1cncc([C@@H](CC(=O)O)NC(=O)[C@@H](CC(C)C)n2ccccc2=O)c1 | > 500 | –
COC1CN(CCc2cn([C@H](CC(C)C)C(=O)N[C@@H](CC(=O)O)c3cc(-c4c(C)cccc4C)cc(Cl)c3F)c(=O)cc2C(F)(F)F)C1 [W-P2, (3S)-3-(5-chloro-4-fluoro-2′,6′-dimethyl-[1,1′-biphenyl]-3-yl)-3-(2-(5-(2-(3-methoxyazetidin-1-yl)ethyl)-2-oxo-4-(trifluoromethyl)pyridin-1(2H)-yl)-4-methylpentanamido)propanoic acid] | – | IC50 (α4β7 [2]; Table 3): < 5 nM
